Test results published in patent US5840690A, “Regulation of cell proliferation and differentation using peptides” (priority 1995, dated 1998).
Non-standard residues stand in square brackets, D forms with d. Residues, ends and D or L forms follow the SMILES beside them. Nle = CCCC[C@H](N)C(=O)O

Key:
[1] = tested on: wounds made through the skin with a 6 mm dermal biopsy punch; test: In vivo skin punch assay; set-up: species or system Sprague-Dawley rats; conditions: rats, 2.0 μg topically in normal saline, immediately after biopsy and each day for 3 days, FIG. 8
Protocol: Male Sprague-Dawley rats were anesthetized by intraperitoneal injection of sodium pentobarbital, their dorsal skin shaved, and wounds made through the skin with a 6 mm dermal biopsy punch. Immediately after the biopsy, and each subsequent day for 3 days, groups of rats received topically 2.0 μg of human PTH (1-34) in normal saline or human PTH (7-34) in normal saline; a control group received normal saline without peptide. Four rats from each group were killed by asphyxiation in a chamber of carbon dioxide, and the extent of wound healing was evaluated as follows. Wounds were photographed with the wound surface perpendicular to the axis of the lens. After development of the film, wound images were projected on to paper at a fixed distance, traced with a pencil, and cut out with sharp scissors. The relative sizes of the wounds were assessed by weighing the cut-out paper tracings. Percent healing was calculated from the average decrease in wound area for each group.

[2] = tested on: PTH-mediated elevation of plasma calcium; conditions: cited from earlier work
[3] = tested on: cultured human keratinocytes; test: Keratinocyte culture: counts of total cells, basal cells and cornified envelopes; type: cell-based; conditions: for total number of basal cells: one week of dosing; for proliferation and terminal differentiation of cultured human keratinocytes (conclusion from the results): peptide by itself
Protocol: Keratinocytes were grown in culture as follows. NIH 3T3 cells were plated at 0.5×10^5 cells per 35-mm tissue-culture dish, and two days later were lethally irradiated with a cobalt-60 source (5000 rads). Keratinocytes were obtained from neonatal foreskin after overnight trypsinization at 4° C. and treatment with 0.02% EDTA. Keratinocytes were plated in 2 ml of serum-free medium per dish on the lethally irradiated 3T3 cells. Each experiment was performed on primary or secondary keratinocyte cultures obtained from different skin samples.
In addition, 1,25-(OH)2 D3 was tested, alone and in combination with PTH (7-34), and PTH (1-34) and PTH (7-34) were tested together.
Beginning at one week in culture, groups of triplicate plates of keratinocytes were incubated with the aforementioned compounds or vehicle alone. After one week of dosing, the medium was removed from each culture and centrifuged, and the pellet was resuspended for the counting of the desquamated floater cells. A hemacytometer was used to count the different cell types under a phase-contrast microscope. The attached cells were then trypsinized for 30-40 min with 0.1 EDTA and 0.1% trypsin and then neutralized with medium. The keratinocytes were pelleted and resuspended in a known volume of medium. Duplicate aliquots were taken for counting the basal (small, rounded) and squamous (larger, irregular-shaped, flattened) cells. The remaining cells were pelleted and treated with 10 mM Tris-HCl (pH 7.4) with 1% beta-mercaptoethanol and 1% sodium dodecyl sulfate (SDS) at room temperature for 10 min. Only cells with cornified envelopes were present after this treatment.
Each culture was thus evaluated for its total cell content, number of basal cells, and cornified envelopes, as described above.

psoriasis = conditions: provided either orally or topically; cited from earlier work
[4] = tested on: PTH-stimulated biologic responses; conditions: cited from earlier work
[5] = tested on: hair obtained from human subjects; test: In vitro hair growth assay; type: cell-based
From the text: Candidate peptides may be screened for their ability to stimulate hair growth as follows. […] Hair is sampled from 4 sites of the scalp (frontal, occipital, temporal, and nuchal) and the following body areas: beard, axilla, pubic, chest, forearm, and leg, using the method described by van Scott et al. (J. Invest. Derm. 29: 197, 1957). Immediately after plucking, the hairs are placed in chilled Krebs-Ringer phosphate buffer, pH 7.4. Growing (anagen) and resting (telogen) hairs are differentiated either by gross examination or under low microscopic magnification. Generally, 2 to 4 anagen hairs and 10 to 30 telogen hairs are incubated in duplicate, in 2 ml. centrifuge tubes, in a total volume of 1 ml of incubation mixture consisting of Krebs-Ringer phosphate buffer, pH 7.4, glucose (9 mM), and candidate peptide; control incubation mixture lacks peptide. Samples are incubated with shaking at 37° C. in an air atmosphere. […]
DNA content is determined by the method of Kissane and Robins (J. Biol. Chem. 233: 184, 1958) as modified by Santoianni and Ayala (J. Invest. Derm. 45: 99, 1965). […] Fluorescence is asssayed on an Aminco-Bowman Spectrofluorometer with the excitation wavelength set at 396 nm and the emission wavelength at […]. […] Routinely, standards containing 0.1, 0.4, 0.8, 1.2, 1.6, and 3.2 μg of DNA, and a blank are read with the samples.

[6] = tested on: canine adenylate cyclase system; conditions: cited from earlier work
[7] = PTH (7-34) together with the agonist
[8] = peptide alone at 10^-8 M and 10^-7 M

CSCC[C@H](NC(=O)[C@H](CO)NC(=O)[C@H](CO)NC(=O)[C@H](CC(C)C)NC(=O)[C@H](Cc1c[nH]cn1)NC(=O)[C@H](CCCCN)NC(=O)CNC(=O)[C@H](CC(C)C)NC(=O)[C@H](CC(N)=O)NC(=O)[C@H](Cc1c[nH]cn1)NC(=O)[C@H](CCSC)NC(=O)[C@@H](N)Cc1ccccc1)C(=O)N[C@@H](CCC(=O)O)C(=O)N[C@@H](CCCNC(=N)N)C(=O)N[C@H](C(=O)N[C@@H](CCC(=O)O)C(=O)N[C@@H](Cc1c[nH]c2ccccc12)C(=O)N[C@@H](CC(C)C)C(=O)N[C@@H](CCCNC(=N)N)C(=O)N[C@@H](CCCCN)C(=O)N[C@@H](CCCCN)C(=O)N[C@@H](CC(C)C)C(=O)N[C@@H](CCC(N)=O)C(=O)N[C@@H](CC(=O)O)C(=O)N[C@H](C(=O)N[C@@H](Cc1c[nH]cn1)C(=O)N[C@@H](CC(N)=O)C(=O)N[C@@H](Cc1ccc(O)cc1)C(N)=O)C(C)C)C(C)C [PTH (7-34), [Tyr^34] bovine PTH (7-34) amide]
wound healing (percent healing from decrease in wound area) [1]: biologically effective in enhancing wound healing
PTH-like agonist activity ([2]; rat, in vivo): devoid of PTH-like agonist activity
PTH-mediated elevation of plasma calcium ([2]; thyroparathyroidectomized rats in vivo): can inhibit
keratinocyte antiproliferative and terminal differentiation-inducing activities of 1,25(OH)2 D3 ([3]; PTH (7-34) against 1,25(OH)2 D3): blocks
antiproliferative and differentiation-inducing activities of PTH (1-34) and CFF (1-34) (antagonist) ([3]; PTH (7-34) against PTH (1-34) and CFF (1-34)): blocks
response to 1,25(OH)2 D3 (cell numbers) ([3]; PTH (7-34) at 10^-7 M co-incubated with 1,25(OH)2 D3 at 10^-8 M): significantly decreased the response
effect of PTH (1-34) and CFF (1-34) on total number of cells and total number of basal cells ([3]; PTH (7-34) co-incubated with hPTH (1-34) or CFF (1-34)): inhibited the effect
antiproliferative and differentiation-inducing activities of each of 1,25(OH)2 D3, PTH (1-34), and CFF (1-34) (conclusion) [3, 7]: can block
effect of 1,25(OH)2 D3, PTH (1-34), and CFF (1-34) on cornified envelope development [3, 7]: inhibited the effect
total number of cornified envelopes, percent of control [3, 8]: no effect
total number of basal cells [3, 8]: no effect
proliferation and terminal differentiation of cultured human keratinocytes (conclusion from the results) [3]: substantially no effect

CC[C@H](C)[C@H](NC(=O)[C@H](CCC(=O)O)NC(=O)[C@H](CO)NC(=O)[C@@H](NC(=O)[C@@H](N)CO)C(C)C)C(=O)N[C@@H](CCC(N)=O)C(=O)N[C@@H](CC(C)C)C(=O)N[C@@H](CCSC)C(=O)N[C@@H](Cc1c[nH]cn1)C(=O)N[C@@H](CC(N)=O)C(=O)N[C@@H](CC(C)C)C(=O)NCC(=O)N[C@@H](CCCCN)C(=O)N[C@@H](Cc1c[nH]cn1)C(=O)N[C@@H](CC(C)C)C(=O)N[C@@H](CC(N)=O)C(=O)N[C@@H](CO)C(=O)N[C@@H](CCSC)C(=O)N[C@@H](CCC(=O)O)C(=O)N[C@@H](CCCNC(=N)N)C(=O)N[C@H](C(=O)N[C@@H](CCC(=O)O)C(=O)N[C@@H](Cc1c[nH]c2ccccc12)C(=O)N[C@@H](CC(C)C)C(=O)N[C@@H](CCCNC(=N)N)C(=O)N[C@@H](CCCCN)C(=O)N[C@@H](CCCCN)C(=O)N[C@@H](CC(C)C)C(=O)N[C@@H](CCC(N)=O)C(=O)N[C@@H](CC(=O)O)C(=O)N[C@H](C(=O)N[C@@H](Cc1c[nH]cn1)C(=O)N[C@@H](CC(N)=O)C(=O)N[C@@H](Cc1ccccc1)C(=O)O)C(C)C)C(C)C [PTH (1-34), Parathyroid Hormone (1-34), Human]
wound healing (percent healing from decrease in wound area) [1]: biologically effective in enhancing wound healing
wound healing (percent healing from decrease in wound area) ([1]; listed as human PTH (1-34)): enhance wound healing
growth of human cultured keratinocytes ([3]; 10^-7 and 10^-8 M): inhibits growth
terminal differentiation of human cultured keratinocytes ([3]; 10^-7 and 10^-8 M): induces terminal differentiation
total number of cornified envelopes, percent of control ([3]; compound alone, FIGS. 6 and 7): increased, in a dose-dependent manner
total number of basal cells [3, 8]: significantly decreased
proliferation and terminal differentiation of cultured human keratinocytes (conclusion from the results) [3]: biologically effective in inhibiting the proliferation of cultured human keratinocytes and inducing terminal differentiation

C=C1/C(=C\C=C2/CCC[C@]3(C)[C@@H]([C@H](C)CC[C@@H](O)C(C)C)CC[C@@H]23)C[C@@H](O)C[C@@H]1O [1,24-dihydroxyvitamin D3]
value in the treatment of psoriasis (psoriasis): of value in the treatment of psoriasis

CCCC[C@H](NC(=O)[C@H](CO)NC(=O)[C@H](CO)NC(=O)[C@H](CC(C)C)NC(=O)[C@H](Cc1c[nH]cn1)NC(=O)[C@H](CCCCN)NC(=O)CNC(=O)[C@H](CC(C)C)NC(=O)[C@H](CC(N)=O)NC(=O)[C@H](Cc1c[nH]cn1)NC(=O)[C@H](CCCC)NC(=O)[C@H](Cc1ccccc1)NC(=O)[C@H](CCC(N)=O)NC(=O)[C@@H](NC(=O)[C@H](CCC(=O)O)NC(=O)[C@@H](N)CO)[C@@H](C)CC)C(=O)N[C@@H](CCC(=O)O)C(=O)N[C@@H](CCCNC(=N)N)C(=O)N[C@H](C(=O)N[C@@H](CCC(=O)O)C(=O)N[C@@H](Cc1c[nH]c2ccccc12)C(=O)N[C@@H](CC(C)C)C(=O)N[C@@H](CCCNC(=N)N)C(=O)N[C@@H](CCCCN)C(=O)N[C@@H](CCCCN)C(=O)N[C@@H](CC(C)C)C(=O)N[C@@H](CCC(N)=O)C(=O)N[C@@H](CC(=O)O)C(=O)N[C@H](C(=O)N[C@@H](Cc1c[nH]cn1)C(=O)N[C@@H](CC(N)=O)C(=O)N[C@@H](Cc1ccc(O)cc1)C(N)=O)C(C)C)C(C)C [PTH (3-34), [Nle^8, Nle^18, Tyr^34] bovine (3-34) PTH amide] (H-SEIQF[Nle]HNLGKHLSS[Nle]ERVEWLRKKLQDVHNY-NH2)
total number of cornified envelopes, percent of control ([3]; compound alone, FIGS. 6 and 7): increased, in a dose-dependent manner
proliferation of keratinocytes (agonist) ([3]; concentration not given): inhibits proliferation
terminal differentiation of keratinocytes (agonist) ([3]; concentration not given): induces terminal differentiation
total number of basal cells ([3]; peptide alone at 10^-10 and 10^-8 M): significantly decreased
proliferation and terminal differentiation of cultured human keratinocytes (conclusion from the results) [3]: have the same effect as PTH (1-34)
PTH-stimulated biologic responses in vitro [4]: can be inhibited

human PTH (7-34): human PTH (7-34), applied topically in normal saline in the skin punch assay; stimulates hair growth in vitro (LMHNLGKHLNSMERVEWLRKKLQDVHNF; Parathyroid hormone; UniProt P01270 38-65, looked up, fragment)
wound healing (percent healing from decrease in wound area) [1]: enhance wound healing
hair growth in vitro [5]: stimulates hair growth

Parathyroid Hormone (1-34), Rat [Rat PTH (1-34)]
activity relative to bovine PTH (1-34) [6]: 2-4 fold
activity relative to human PTH (1-34) [6]: 8-10 fold
